Tests used:
P-gp [1] = molecular target: T1, P-gp (Homo sapiens, UniProt P08183); test: clinical; conditions: plasma, 0.5 mg
Experimental: (§1) Blood samples for digoxin PK were collected predose and up to 144 hours post-digoxin dose. Samples were measured using validated high-performance liquid chromatography tandem mass spectrometry methods. PK parameters were estimated using non-compartmental methods.

P-gp [2] = molecular target: T1, P-gp
Experimental: as §1

CYP3A4 = CYP3A4 (Homo sapiens, UniProt P08684); test: Phase 1 interaction study, midazolam (CYP3A4 substrate) with sotorasib; conditions: 2 mg midazolam with 960 mg sotorasib after 14 days daily sotorasib vs midazolam alone
[3] = 0.5 mg digoxin, 960 mg sotorasib
[4] = with a single dose of sotorasib vs digoxin alone

T1 sequence (P08183 whole entry): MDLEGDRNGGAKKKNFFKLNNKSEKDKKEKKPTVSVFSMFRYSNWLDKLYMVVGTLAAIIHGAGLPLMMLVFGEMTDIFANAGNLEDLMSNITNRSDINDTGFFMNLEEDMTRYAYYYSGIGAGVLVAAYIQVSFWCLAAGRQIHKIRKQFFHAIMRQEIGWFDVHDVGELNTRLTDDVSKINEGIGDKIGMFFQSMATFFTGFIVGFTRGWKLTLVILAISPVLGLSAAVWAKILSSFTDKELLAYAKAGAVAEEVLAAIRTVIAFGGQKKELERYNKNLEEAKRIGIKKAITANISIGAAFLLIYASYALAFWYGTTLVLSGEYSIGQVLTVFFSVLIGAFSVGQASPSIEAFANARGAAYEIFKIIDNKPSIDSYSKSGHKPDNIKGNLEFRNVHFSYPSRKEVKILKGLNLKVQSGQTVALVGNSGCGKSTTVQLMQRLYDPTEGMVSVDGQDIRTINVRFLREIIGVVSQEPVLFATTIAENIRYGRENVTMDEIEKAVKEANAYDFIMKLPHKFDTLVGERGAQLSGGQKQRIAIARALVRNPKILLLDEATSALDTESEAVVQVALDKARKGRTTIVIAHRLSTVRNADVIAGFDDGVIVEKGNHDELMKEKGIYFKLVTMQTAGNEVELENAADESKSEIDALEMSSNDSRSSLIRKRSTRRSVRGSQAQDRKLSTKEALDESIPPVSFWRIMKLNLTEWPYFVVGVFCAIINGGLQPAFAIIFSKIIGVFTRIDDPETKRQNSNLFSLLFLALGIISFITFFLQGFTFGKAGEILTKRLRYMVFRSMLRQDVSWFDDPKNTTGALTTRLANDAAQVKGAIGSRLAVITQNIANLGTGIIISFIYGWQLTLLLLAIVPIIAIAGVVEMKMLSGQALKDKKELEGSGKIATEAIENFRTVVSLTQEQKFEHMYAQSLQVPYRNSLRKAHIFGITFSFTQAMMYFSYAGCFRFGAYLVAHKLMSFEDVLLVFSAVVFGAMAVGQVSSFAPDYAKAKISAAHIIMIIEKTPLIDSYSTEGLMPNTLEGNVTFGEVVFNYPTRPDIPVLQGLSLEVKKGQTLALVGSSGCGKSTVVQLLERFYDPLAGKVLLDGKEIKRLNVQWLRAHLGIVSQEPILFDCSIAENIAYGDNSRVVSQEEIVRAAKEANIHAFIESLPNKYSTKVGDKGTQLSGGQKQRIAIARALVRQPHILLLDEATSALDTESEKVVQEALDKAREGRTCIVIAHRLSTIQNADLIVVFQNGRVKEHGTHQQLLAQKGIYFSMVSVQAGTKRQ
Chain of CYP3A4 (P08684 whole entry): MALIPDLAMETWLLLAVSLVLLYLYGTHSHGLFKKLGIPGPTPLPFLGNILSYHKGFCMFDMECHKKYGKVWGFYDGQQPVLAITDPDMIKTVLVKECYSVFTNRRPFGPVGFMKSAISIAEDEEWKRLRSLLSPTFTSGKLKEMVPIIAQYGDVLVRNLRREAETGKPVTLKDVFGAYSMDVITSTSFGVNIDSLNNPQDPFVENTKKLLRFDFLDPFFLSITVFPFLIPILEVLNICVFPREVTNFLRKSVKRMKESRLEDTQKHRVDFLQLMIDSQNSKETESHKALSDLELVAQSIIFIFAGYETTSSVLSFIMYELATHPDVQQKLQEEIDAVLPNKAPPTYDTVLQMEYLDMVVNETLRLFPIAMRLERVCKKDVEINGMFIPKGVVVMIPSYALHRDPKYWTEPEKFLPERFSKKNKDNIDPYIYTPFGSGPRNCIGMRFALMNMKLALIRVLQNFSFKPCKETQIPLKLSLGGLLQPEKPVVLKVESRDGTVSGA

SMILES | AUC(0-inf) (P-gp [1]) [ng·h/mL] | Cmax (P-gp [1]) [ng/mL] | Digoxin mean terminal half-life (t1/2) with sotorasib compared to alone (P-gp [2]; [3]) | Digoxin median time to maximal plasma concentration (tmax) with sotorasib compared to alone (P-gp [2]; [3]) | safety and tolerability (P-gp [2]; single doses of 0.5 mg digoxin alone or with 960 mg sotorasib) | increase of digoxin AUCinf (P-gp [2]; [4]) | increase of digoxin Cmax (P-gp [2]; [4]) [%] | decrease of midazolam AUV (CYP3A4) [%] | decrease of midazolam Cmax (CYP3A4) [%]
C[C@H]1O[C@@H](O[C@H]2[C@@H](O)C[C@H](O[C@H]3[C@@H](O)C[C@H](O[C@H]4CC[C@@]5(C)[C@H](CC[C@@H]6[C@@H]5C[C@@H](O)[C@]5(C)[C@@H](C7=CC(=O)OC7)CC[C@]65O)C4)O[C@@H]3C)O[C@@H]2C)C[C@H](O)[C@@H]1O [digoxin] | 33.2 | 1.9 | similar | similar | safe and well tolerated | approximately 21% | ~91 |  | 
Cc1ncc2n1-c1ccc(Cl)cc1C(c1ccccc1F)=NC2 [midazolam] |  |  |  |  |  |  |  | 53 | 48

Reference: US20220323446A1 (Amgen Inc., priority 2021, published 2022)
